Results published in paper PMC8069832, “New Amides and Phosphoramidates Containing Selenium: Studies on Their Cytotoxicity and Antioxidant Activities in Breast Cancer” (Antioxidants, 2021).
Read-outs that look alike come from different tables or passages of the source.

What was measured:
CCRF-CEM = test: cells; conditions: Homo sapiens, 48 h; for activity at 10 µM: read-out: Cell growth (%) CCRF-CEM; for GI50: read-out: GI50 CCRF-CEM; for CC50: read-out: LC50 CCRF-CEM; for IC (TGI): read-out: TGI CCRF-CEM
[1] = DPPH radical scavenging assay
Experimental: The DPPH (1,1-diphenyl-2-picrylhydrazyl radical) assay measures the hydrogen donation ability of the antioxidant to convert the stable DPPH free radical into 1,1-diphenyl-2-(2,4,6-trinitrophenyl)-hydrazine. After radical reaction with the compounds, a decrease in the absorbance was detected at 517 nm, which is accompanied by a change of color from violet to light-yellow. The target compounds were dissolved in methanol to make 1 mg/mL stock solutions, which were diluted to five concentrations as test samples. Ascorbic acid was used as a standard, and the experiment was carried out on 96-well plates. The DPPH solution was prepared at a 100 µM concentration. For each test, 100 µL of DPPH solution was added to 100 µL of methanolic solution containing the tested derivatives, and the absorbance was determined at different time points. All the measurements were carried out in triplicate. Results were expressed as the percentage of the radical scavenged, calculated using the following formula:(1) % DPPH radical scavenging=Acontrol − Asample/Acontrol × 100 where Acontrol refers to the absorbance of the negative control, and Asample refers to the absorbance of the tested compounds. Results are expressed as a percentage of DPPH radical scavenged ± SEM.
. Ascorbic acid and Trolox were used as radical scavenger gold standards. […]. No correlation was found for either structure–radical scavenging activity or antitumor–radical scavenging activity, except for compound I.2f, one of the selected cytotoxic agents. To further confirm this antioxidant activity, three compounds (I.1e, I.1g and I.2i) were also evaluated as DPPH radical scavengers at a lower concentration of 0.003 mg/mL (Figure 3B).

MCF-7 [2] = test: cells; conditions: Homo sapiens, MCF7, 48 h; for activity at 10 µM: read-out: Cell growth (%) MCF-7; for GI50: read-out: GI50 MCF-7, 48 h, average ± SEM; for CC50: read-out: LC50 MCF-7; for IC (TGI): read-out: TGI MCF-7
HT-29 = test: cells; conditions: Homo sapiens, HT-29, 48 h; for activity at 10 µM: read-out: Cell growth (%) HT-29; for GI50: read-out: GI50 HT-29; for CC50: read-out: LC50 HT-29; for IC (TGI): read-out: TGI HT-29
HTB-54 = test: cells; assay type: cell-based; conditions: Homo sapiens; for CC50: HTB-54, 48 h, read-out: LC50 HTB54; for GI50 / IC (TGI): HTB-54, 48 h, average ± SEM; for GI50: read-out: GI50 HTB54; for IC (TGI): read-out: TGI HTB54
Experimental: (§1) Cell lines were provided by the European Collection of Cell Cultures (ECACC) or by the American Type Culture Collection (ATCC). Seven cell lines were used: MCF-7 (breast adenocarnicoma), 184B5 (nonmalignant, mammary gland derived), CCRF-CEM (lymphoblastic leukemia), HT-29 (colon carcinoma), HTB-54 (lung carcinoma), BEAS-2B (nonmalignant, derived from the bronchial epithelium) and PC-3 (prostate carcinoma). MCF-7, CCRF-CEM, HT-29, HTB-54, BEAS-2B and PC-3 cell lines were grown in RPMI medium (Gibco) supplemented with 10% fetal bovine serum (FBS; Gibco), 100 units/mL penicillin and […] streptomycin (Gibco). 184B5 cells were grown in DMEM/F12 medium supplemented with 5% FBS, 1 × ITS (Lonza), 100 nM hydrocortisone (Aldich), 2 mM sodium pyruvate (Lonza), 20 ng/mL EGF (Sigma-Aldrich), 0.3 nM trans-retinoic acid (Sigma-Aldrich), 100 units/mL penicillin and […] streptomycin. Cells were maintained at 37 °C and 5% CO2.
(§2) The cytotoxic effect of each substance was tested by the MTT method. Each compound was initially dissolved in DMSO at a concentration of 0.01 M, and serial dilutions were prepared with nonsupplemented medium. The cytotoxic effect of each compound was tested at 50 and 10 µM as a first screening. […]
(§3) A total of 1 × 10^4 cells/well in 96-well plates were treated with increasing concentrations of the corresponding compounds for 48 h at 37 °C in a humidified atmosphere containing 5% CO2. Then, cells were incubated with 50 µL of MTT (2 mg/mL stock) for 4 h. The medium was then removed by aspiration, and the formazan crystals were dissolved in […] of DMSO. […] Data were obtained from at least 3 independent experiments performed in quadruplicate. The standard error of the means (SEM) for the cytotoxic parameters was calculated applying the standard deviation formula to the mean values of each parameter for the three independent experiments performed.
(§4) . Cisplatin was used as a standard drug. […]. […] The presence of electron-withdrawing groups (-NO2, -CF3, -Cl) in the phenyl ring favored the cytotoxic activity in the amides, but in the phosphoramidates, the best results were obtained for aliphatic chains methoxy (II.1b, II.2b) and ethoxy (II.1d, II.2d). […].

PC-3 = test: cells; assay type: cell-based; conditions: Homo sapiens; for LC50: PC-3, 48 h, read-out: LC50 PC-3; for GI50 / IC (TGI): PC-3, 48 h, average ± SEM; for GI50: read-out: GI50 PC-3; for IC (TGI): read-out: TGI PC-3
Experimental: as §1, §2, §3, §4

184B5 = test: MTT cytotoxicity in nonmalignant mammary gland derived cells; assay type: cell-based; conditions: for GI50 / IC (TGI): Homo sapiens, 184B5, nonmalignant cells, 48 h; for GI50: read-out: GI50 184B5; for IC (TGI): read-out: TGI 184B5; for Selectivity index (SI) = GI50 (184B5)/GI50 (MCF-7): breast
Experimental: as §1, §2, §3, §4
(§5) The lack of selectivity toward cancerous cells is one of the major issues during the discovery and development of new anticancer agents. Therefore, we evaluated the cytotoxic activity of our compounds against two cell lines derived from nonmalignant breast tissue (184B5) and no malignant bronchial epithelium (BEAS-2B) (Table 2). […].

[3] = as above; assay type: cell-based; conditions: human
Experimental: as §1, §2, §3, §4, §5

BEAS-2B = test: MTT cytotoxicity in nonmalignant bronchial epithelium cells; assay type: cell-based; conditions: for GI50 / IC (TGI): Homo sapiens, BEAS-2B, nonmalignant cells, 48 h; for GI50: read-out: GI50 BEAS-2B; for IC (TGI): read-out: TGI BEAS-2B
Experimental: as §1, §2, §3, §4, §5

[4] = as above; assay type: cell-based; conditions: human
Experimental: as §1, §2, §3, §4, §5

MCF-7 [5] = conditions: read-out: GI50 MCF-7; 48 h, average ± SEM

| SMILES | activity at 10 µM (CCRF-CEM) [%] | GI50 (CCRF-CEM) [µM] | CC50 (CCRF-CEM) [µM] | IC (TGI) (CCRF-CEM) [µM] | activity at 10 µM (MCF-7 [2]) [%] | GI50 (MCF-7 [2]) [µM] | CC50 (MCF-7 [2]) [µM] | IC (TGI) (MCF-7 [2]) [µM] | activity at 10 µM (HT-29) [%] | GI50 (HT-29) [µM] | CC50 (HT-29) [µM] | IC (TGI) (HT-29) [µM] | CC50 (HTB-54) [µM] | GI50 (HTB-54) [µM] | IC (TGI) (HTB-54) [µM] | LC50 (PC-3) [µM] | GI50 (PC-3) [µM] | IC (TGI) (PC-3) [µM] | GI50 (184B5) [µM] | IC (TGI) (184B5) [µM] | other results |
| --- | --- | --- | --- | --- | --- | --- | --- | --- | --- | --- | --- | --- | --- | --- | --- | --- | --- | --- | --- | --- | --- |
| O=C(Nc1ccc([Se][Se]c2ccc(NC(=O)c3ccc([N+](=O)[O-])cc3)cc2)cc1)c1ccc([N+](=O)[O-])cc1 [I.1e] | 35.4 | 6.5 ± 1.5 | 67 ± 2 | 33.8 ± 2 | 45.2 | 7.4 ± 1 | 73.4 ± 0.1 | 40.1 ± 0.1 | 49.2 | 16.8 ± 2.5 | 72.3 ± 1.8 | 44.6 ± 3.1 | 72.8 ± 1.4 | 16.9 ± 3.1 | 44.8 ± 2.3 | 64.9 ± 1.1 | 2.5 ± 0.2 | 28.5 ± 1.9 | 7.76 | 33.8 | DPPH radical scavenging activity ([1]; 0.003 mg/mL): some moderate effect was observed; DPPH activity inhibition ([1]; 0.03 mg/mL, after 30 min): greater than 35%; Selectivity index (SI) = GI50 (184B5)/GI50 (MCF-7) (184B5): 1.14; LC50 (50% lethal concentration) at 48 h [3]: 68.2 µM; GI50 (BEAS-2B): 0.42 µM; IC (TGI) (BEAS-2B): 4.8 µM; Selectivity index (SI) = GI50 (BEAS-2B)/GI50 (HTB-54) (BEAS-2B; lung): 0.02; LC50 (50% lethal concentration) at 48 h [4]: 15.8 µM |
| N#C[Se]c1ccc(NC(=O)c2ccc(Cl)cc2)cc1 [I.2b] | 50.1 | 8.7 ± 1.1 | > 100 | > 100 | 33.5 | < 1 | > 100 | 51.8 ± 2.5 | 52.3 | 16.5 ± 3.6 | > 100 | > 100 | > 100 | > 100 | > 100 | > 100 | > 100 | > 100 | 0.89 | > 100 | GI50 (MCF-7 [5]): 500 ± 900 nM; Selectivity index (SI) = GI50 (184B5)/GI50 (MCF-7) (184B5): 1.53; LC50 (50% lethal concentration) at 48 h [3]: > 100 µM; GI50 (BEAS-2B): > 100 µM; IC (TGI) (BEAS-2B): > 100 µM; LC50 (50% lethal concentration) at 48 h [4]: > 100 µM |
| N#C[Se]c1ccc(NC(=O)c2ccc([N+](=O)[O-])cc2)cc1 [I.2e] | 50.3 | 31.6 ± 0.4 | > 100 | > 100 | 33.4 | < 1 | > 100 | 54.4 ± 2.7 | 35.9 | 0.8 ± 0.1 | > 100 | 58.2 ± 6.4 | > 100 | > 100 | > 100 | > 100 | > 100 | > 100 | 7.13 | > 100 | GI50 (MCF-7 [5]): 600 ± 100 nM; LC50 (50% lethal concentration) at 48 h [3]: > 100 µM; GI50 (BEAS-2B): > 100 µM; IC (TGI) (BEAS-2B): > 100 µM; LC50 (50% lethal concentration) at 48 h [4]: > 100 µM |
